Where two headings read alike, the source gives them in different places.
Key:
[1] = target: T1, endogenous human UII receptor (Homo sapiens, UniProt Q9UKP6); assay: Human Radioligand Binding Assay ((^125I)-U-II binding to human skeletal muscle myoblasts)
T1 sequence (Q9UKP6 1-389): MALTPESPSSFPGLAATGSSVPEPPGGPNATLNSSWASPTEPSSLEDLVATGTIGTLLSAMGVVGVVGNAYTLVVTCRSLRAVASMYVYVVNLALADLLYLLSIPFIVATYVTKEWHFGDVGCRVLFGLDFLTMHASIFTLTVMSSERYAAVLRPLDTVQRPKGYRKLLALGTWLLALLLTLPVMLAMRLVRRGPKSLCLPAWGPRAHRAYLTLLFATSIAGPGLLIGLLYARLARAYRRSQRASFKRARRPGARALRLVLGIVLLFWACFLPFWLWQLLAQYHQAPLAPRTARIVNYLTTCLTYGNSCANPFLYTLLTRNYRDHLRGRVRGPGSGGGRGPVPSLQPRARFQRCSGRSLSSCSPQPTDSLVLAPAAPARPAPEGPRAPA

[2] = target: T2, Human UII receptor, 6D9 human rhabdomyosarcoma cells (Homo sapiens, UniProt Q9UKP6); assay: Human UII Calcium Mobilization Assay; assay type: cell-based; conditions: average value, FLIPR TETRA, read-out: Human UII Ca^+ Mobilization Average IC50
T2 construct: 6D9: isolated by dilution subcloning of RMS13 cells, ATCC® Number: CRL-2061; host or cells: 6D9 human rhabdomyosarcoma cells (subclone of RMS13)
T2 sequence (Q9UKP6 1-389): T1 sequence (Q9UKP6 1-389)
In short: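 6D9 rhabdomyosarcoma cells loaded 45 min at 37° C with calcium dye (1.25 mM probenecid, 0.01% FBS, HBSS/20 mM HEPES). Antagonist and U-II agonist added at room temperature; FLIPR fluorescence read over 4 min; EC50/IC50 fitted. DMSO ≤0.1% final.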

[3] = target: T3, rat GPR14 (U-II receptor) (Rattus norvegicus, UniProt P49684); assay: Rat UII Calcium Mobilization FLIPR Assay; assay type: cell-based; conditions: average value for the compound tested; read-out: Rat UII FLIPR Average IC50
T3 construct: expressed in transfected cells
T3 sequence (P49684 1-386): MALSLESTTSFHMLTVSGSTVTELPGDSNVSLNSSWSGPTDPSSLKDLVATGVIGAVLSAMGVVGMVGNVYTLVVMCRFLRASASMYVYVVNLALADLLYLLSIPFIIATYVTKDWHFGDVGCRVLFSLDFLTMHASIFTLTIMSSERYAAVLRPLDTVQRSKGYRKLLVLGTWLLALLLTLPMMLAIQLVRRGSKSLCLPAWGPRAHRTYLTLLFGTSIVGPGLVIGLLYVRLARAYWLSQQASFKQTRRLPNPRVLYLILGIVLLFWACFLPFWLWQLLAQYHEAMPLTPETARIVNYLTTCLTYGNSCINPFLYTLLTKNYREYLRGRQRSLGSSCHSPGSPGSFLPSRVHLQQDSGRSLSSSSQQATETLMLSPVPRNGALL
In short: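 CHO cells stably expressing rat U-II receptor, seeded 24 h before assay, were loaded with FLIPR calcium dye in HBSS/20 mM HEPES/0.1% BSA/2.5 mM probenecid, pH 7.4, for 1 h at 37° C. Calcium mobilization then read by FLIPR at 23° C.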

[4] = read-out: Human UII Average Binding Ki, average value, (^125I)-U-II binding to human skeletal muscle myoblasts (HSMM), 25° C., 3 h

Compound: CCN1CCN(c2cccc3c2C(=O)N([C@H](CCCNC(=O)OC(C)(C)C)c2ccc(OC)c(OC)c2)C3=O)CC1 [Cpd 197, (R)-{4-(3,4-dimethoxy-phenyl)-4-[4-(4-ethyl-piperazin-1-yl)-1,3-dioxo-1,3-dihydro-isoindol-2-yl]-butyl}-carbamic acid tert-butyl ester]
- Ki [1]: 220 nM
- IC50 [2]: 540 nM
- IC50 [3]: 82 nM

Compound: COc1ccc([C@@H](CCCNS(=O)(=O)c2cccs2)N2C(=O)c3cccc(N4CCN(C(C)C)CC4)c3C2=O)cc1OC [Cpd 198, (R)-thiophene-2-sulfonic acid {4-(3,4-dimethoxy-phenyl)-4-[4-(4-isopropyl-piperazin-1-yl)-1,3-dioxo-1,3-dihydro-isoindol-2-yl]-butyl}-amide]
- Ki [1, 4]: 45 nM
- IC50 [2]: 150 nM
- IC50 [3]: 3.5 nM

Compound: COc1ccc([C@@H](CCCNC(=O)C(C#N)C(C)=O)N2C(=O)c3cccc(N4CCN([C@H](C)c5ccccc5)CC4)c3C2=O)cc1OC (stereo partly drawn) [Cpd 199, (R)-2-cyano-N-(4-(3,4-dimethoxy-phenyl)-4-{1,3-dioxo-4-[4-(1R)-(1-phenyl-ethyl)-piperazin-1-yl]-1,3-dihydro-isoindol-2-yl}-butyl)-3-oxo-butyramide]
- Ki [1]: 27 nM
- IC50 [2]: 160 nM
- IC50 [3]: 9.3 nM

Compound: CCN1CCN(c2cccc3c2C(=O)N([C@H](CCCOCc2ccccc2)c2ccc(OC)c(OC)c2)C3=O)CC1 [Cpd 201, (R)-2-[4-benzyloxy-1-(3,4-dimethoxy-phenyl)-butyl]-4-(4-ethyl-piperazin-1-yl)-isoindole-1,3-dione]
- Ki [1]: 210 nM
- IC50 [2]: > 3000 nM
- IC50 [3]: 49 nM

Compound: CCN1CCN(c2cccc3c2C(=O)N([C@H](CCCNC(=O)C2CCC2)c2ccc(OC)c(OC)c2)C3=O)CC1 [Cpd 202, (R)-cyclobutanecarboxylic acid {4-(3,4-dimethoxy-phenyl)-4-[4-(4-ethyl-piperazin-1-yl)-1,3-dioxo-1,3-dihydro-isoindol-2-yl]-butyl}-amide]
- Ki [1]: 150 nM
- IC50 [2]: 960 nM
- IC50 [3]: 120 nM

Compound: CCN1CCN(c2cccc3c2C(=O)N([C@H](CCCNS(=O)(=O)c2cn(C)c(C)n2)c2ccc(OC)c(OC)c2)C3=O)CC1 [Cpd 203, (R)-1,2-dimethyl-1H-imidazole-4-sulfonic acid {4-(3,4-dimethoxy-phenyl)-4-[4-(4-ethyl-piperazin-1-yl)-1,3-dioxo-1,3-dihydro-isoindol-2-yl]-butyl}-amide]
- Ki [1, 4]: 97 nM
- IC50 [2]: 810 nM
- IC50 [3]: 140 nM

Compound: CCN1CCN(c2cccc3c2C(=O)N([C@H](CCCO)c2ccc(OC)c(OC)c2)C3=O)CC1 [Cpd 206, (R)-2-[1-(3,4-dimethoxy-phenyl)-4-hydroxy-butyl]-4-(4-ethyl-piperazin-1-yl)-isoindole-1,3-dione]
- Ki [1]: 66 nM
- IC50 [2]: 680 nM
- IC50 [3]: 690 nM

Compound: CCOCCC[C@H](c1ccc(OC)c(OC)c1)N1C(=O)c2cccc(N3CCN(CC)CC3)c2C1=O [Cpd 207, (R)-2-[1-(3,4-dimethoxy-phenyl)-4-ethoxy-butyl]-4-(4-ethyl-piperazin-1-yl)-isoindole-1,3-dione]
- Ki [1]: > 300 nM
- IC50 [2]: 1400 nM
- IC50 [3]: 200 nM

Compound: CCN1CCN(c2cccc3c2C(=O)N([C@H](CCCOCC(C)C)c2ccc(OC)c(OC)c2)C3=O)CC1 [Cpd 210, (R)-2-[1-(3,4-dimethoxy-phenyl)-4-isobutoxy-butyl]-4-(4-ethyl-piperazin-1-yl)-isoindole-1,3-dione]
- Ki [1]: > 300 nM
- IC50 [2]: > 10000 nM
- IC50 [3]: 6200 nM

Compound: COc1ccc([C@@H](CCNC(=O)c2csc(C)n2)N2C(=O)c3cccc(N4CCN([C@H](C)c5ccccc5)CC4)c3C2=O)cc1OC [Cpd 211, (R)-2-methyl-thiazole-4-carboxylic acid (3-(3,4-dimethoxy-phenyl)-3-{1,3-dioxo-4-[4-(1R)-(1-phenyl-ethyl)-piperazin-1-yl]-1,3-dihydro-isoindol-2-yl}-propyl)-amide]
- Ki [1]: 89 nM
- IC50 [2]: 1200 nM
- IC50 [3]: 19 nM

Compound: COc1ccc([C@@H](CCCNC(=O)C(F)(F)F)N2C(=O)c3cccc(N4CCN([C@H](C)c5ccccc5)CC4)c3C2=O)cc1OC [Cpd 212, (R)-N-(4-(3,4-dimethoxy-phenyl)-4-{1,3-dioxo-4-[4-(1R)-(1-phenyl-ethyl)-piperazin-1-yl]-1,3-dihydro-isoindol-2-yl}-butyl)-2,2,2-trifluoro-acetamide]
- Ki [1]: 26 nM
- IC50 [2]: 790 nM
- IC50 [3]: 19 nM

Compound: COc1ccc([C@@H](CCCNC(=O)COC(C)(C)C)N2C(=O)c3cccc(N4CCN([C@H](C)c5ccccc5)CC4)c3C2=O)cc1OC [Cpd 213, (R)-2-tert-butoxy-N-(4-(3,4-dimethoxy-phenyl)-4-{1,3-dioxo-4-[4-(1R)-(1-phenyl-ethyl)-piperazin-1-yl]-1,3-dihydro-isoindol-2-yl}-butyl)-acetamide]
- Ki [1]: 54 nM
- IC50 [2]: 730 nM
- IC50 [3]: 17 nM

Compound: CCN1CCN(c2cccc3c2C(=O)N([C@H](CCCOCc2cccs2)c2ccc(OC)c(OC)c2)C3=O)CC1 [Cpd 214, (R)-2-[1-(3,4-dimethoxy-phenyl)-4-(thiophen-2-ylmethoxy)-butyl]-4-(4-ethyl-piperazin-1-yl)-isoindole-1,3-dione]
- Ki [1]: > 300 nM
- IC50 [2]: > 10000 nM
- IC50 [3]: 9500 nM

Compound: COc1ccc([C@@H](CCCNC(=O)c2c(C)n[nH]c2C)N2C(=O)c3cccc(N4CCN([C@H](C)c5ccccc5)CC4)c3C2=O)cc1OC [Cpd 215, (R)-3,5-dimethyl-1H-pyrazole-4-carboxylic acid (4-(3,4-dimethoxy-phenyl)-4-{1,3-dioxo-4-[4-(1R)-(1-phenyl-ethyl)-piperazin-1-yl]-1,3-dihydro-isoindol-2-yl}-butyl)-amide]
- Ki [1, 4]: 87 nM
- IC50 [2]: 37 nM
- IC50 [3]: 11 nM

Compound: COc1ccc([C@@H](CCNC(=O)c2cnoc2C)N2C(=O)c3cccc(N4CCN([C@H](C)c5ccccc5)CC4)c3C2=O)cc1OC [Cpd 217, (R)-5-methyl-isoxazole-4-carboxylic acid (3-(3,4-dimethoxy-phenyl)-3-{1,3-dioxo-4-[4-(1R)-(1-phenyl-ethyl)-piperazin-1-yl]-1,3-dihydro-isoindol-2-yl}-propyl)-amide]
- Ki [1]: 32 nM
- IC50 [2]: 1000 nM
- IC50 [3]: 14 nM

Compound: CCN1CCN(c2cccc3c2C(=O)N([C@H](CCCOCC(=O)O)c2ccc(OC)c(OC)c2)C3=O)CC1 [Cpd 218, (R)-{4-(3,4-dimethoxy-phenyl)-4-[4-(4-ethyl-piperazin-1-yl)-1,3-dioxo-1,3-dihydro-isoindol-2-yl]-butoxy}-acetic acid]
- Ki [1]: > 300 nM
- IC50 [2]: 2400 nM
- IC50 [3]: 240 nM

Compound: COc1ccc([C@@H](CCNS(=O)(=O)c2cn(C)c(C)n2)N2C(=O)c3cccc(N4CCN([C@H](C)c5ccccc5)CC4)c3C2=O)cc1OC [Cpd 219, (R)-1,2-dimethyl-1H-imidazole-4-sulfonic acid (3-(3,4-dimethoxy-phenyl)-3-{1,3-dioxo-4-[4-(1R)-(1-phenyl-ethyl)-piperazin-1-yl]-1,3-dihydro-isoindol-2-yl}-propyl)-amide]
- Ki [1]: 44 nM
- IC50 [2]: 1000 nM
- IC50 [3]: 22 nM

Compound: COc1ccc([C@@H](CCNS(=O)(=O)O)N2C(=O)c3cccc(N4CCN([C@H](C)c5ccccc5)CC4)c3C2=O)cc1OC [Cpd 220, (R)-(3-(3,4-dimethoxy-phenyl)-3-{1,3-dioxo-4-[4-(1R)-(1-phenyl-ethyl)-piperazin-1-yl]-1,3-dihydro-isoindol-2-yl}-propyl)-sulfamic acid]
- Ki [1]: 11 nM
- IC50 [2]: 170 nM
- IC50 [3]: 23 nM

Compound: COc1ccc([C@@H](CCNC(=O)c2ccncc2)N2C(=O)c3cccc(N4CCN([C@H](C)c5ccccc5)CC4)c3C2=O)cc1OC [Cpd 221, (R)-N-(3-(3,4-dimethoxy-phenyl)-3-{1,3-dioxo-4-[4-(1R)-(1-phenyl-ethyl)-piperazin-1-yl]-1,3-dihydro-isoindol-2-yl}-propyl)-isonicotinamide]
- Ki [1]: 72 nM
- IC50 [2]: 910 nM
- IC50 [3]: 15 nM

Source: patent publication US8193191B2, “Urotensin II receptor antagonists” (Janssen Pharmaceutica N.V., priority 2006, dated 2012)
